Experiment: gradient 5% acetonitrile 3 min, to 50% in 2 min, to 85% in 15 min, held 3 min, 100 µL/min
Conditions: column: Zorbax Extend-C18 2.1 x 50 mm; eluents: water / acetonitrile, 0.1% formic acid
Procedure, shortened: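 Each retention time is based on an adduct peak selected computationally and verified by manual inspection. Measurements used HPLC–quadrupole time-of-flight mass spectrometry in positive and negative ionization mode on mixtures of ~100 pure standards. Chromatography ran on a Zorbax Extend-C18 column (2.1 × 50 mm, 1.8 μm) at 100 μL/min with water and acetonitrile, each containing 0.1% formic acid, and dead and dwell volumes of 40 μL and 900 μL.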

**Q.** With `CCN(CC)c1cc(CNC(=O)Nc2cc(OC)ccc2OC)ccn1` as the compound, how does the RP-LC retention time read?
**A.** 632 s

**Q.** For `COc1ccc(S(=O)(=O)NCc2cccnc2-c2ccc(C)cc2)cc1Cl`, which RP-LC retention time is on record?
**A.** 743 s

**Q.** With `CCN(CC)C(=O)c1ccc2c(c1)N(CC(=O)NCc1ccccn1)C(=O)CO2` as the compound, how does the RP-LC retention time read?
**A.** 594 s

**Q.** For `CC(C)c1ccc(OCC(=O)Nc2cc3c(cc2N2CCOCC2)n(C)c(=O)c(=O)n3C)cc1`, which RP-LC retention time is on record?
**A.** 921 s

**Q.** For `Cc1cc2nn(CC(=O)Nc3cccc(F)c3)c(=O)n2c(Nc2ccc(F)cc2)n1`, which RP-LC retention time is on record?
**A.** 981 s

**Q.** Which RP-LC retention time does the source give for `COC(=O)c1ccc2c(=O)n(-c3ccc4c(c3)OCO4)c(N3CCN(c4ccccn4)CC3)nc2c1` here?
**A.** 660 s

**Q.** Which RP-LC retention time does the source give for `CC(C)(C)c1cc(C(=O)NCc2ccccc2)nc2ccnn12` here?
**A.** 1140 s

**Q.** Which RP-LC retention time does the source give for `Cn1cnc(S(=O)(=O)N2CCCN(S(=O)(=O)Cc3ccccc3)CCNC(=O)CC2c2ccccc2)c1` (stereo not given) here?
**A.** 711 s

**Q.** For `CCCCC(=O)N1CCN(C(=O)c2cc3cc(Br)ccc3[nH]2)CC1`, which RP-LC retention time is on record?
**A.** 873 s

**Q.** With `CC(C)c1cc(C(=O)NC2CC2)n[nH]1` as the compound, how does the RP-LC retention time read?
**A.** 625 s

**Q.** For `CC1CCC(NC(=O)c2nnc(-c3ccc(S(=O)(=O)N4CCOCC4)cc3)o2)CC1` (stereo not given), which RP-LC retention time is on record?
**A.** 917 s

**Q.** Which RP-LC retention time does the source give for `O=C(NCc1ccc(F)cc1)C1CCN(c2cc(N3CCCCC3)ncn2)CC1` here?
**A.** 676 s

**Q.** With `CCNC(=O)N1CC(c2nc(-c3cccnc3)no2)C2(CCOCC2)C1` (stereo not given) as the compound, how does the RP-LC retention time read?
**A.** 597 s

**Q.** Which RP-LC retention time does the source give for `O=c1ccc(-c2ccc(F)cc2)nn1CCc1nc(-c2ccccc2Cl)no1` here?
**A.** 1020 s

**Q.** With `Cc1c(CCC(=O)N[C@H](CCS(C)=O)C(=O)O)c(=O)oc2cc(O)ccc12` (stereo not given in full) as the compound, how does the RP-LC retention time read?
**A.** 575 s

**Q.** With `CCc1cccc(C)c1NC(=O)Cn1cnc2nc(N3CCCC(C(=O)NC)C3)sc2c1=O` (stereo not given) as the compound, how does the RP-LC retention time read?
**A.** 672 s

**Q.** For `O=C(NCc1ccc(F)cc1)c1ccnc(N2CCNC(c3ccccc3)C2)c1` (stereo not given), which RP-LC retention time is on record?
**A.** 635 s

**Q.** Which RP-LC retention time does the source give for `CCCCNc1onc(-c2ccc(F)cc2)c1C(=O)OC` here?
**A.** 1130 s

**Q.** Which RP-LC retention time does the source give for `CCN(CCNC(=O)c1cc2c(s1)CN(C(C)C)C2)c1cccc(C)c1` here?
**A.** 573 s

**Q.** For `CCCn1cc(C(=O)NCCN(C)C)c(S(=O)(=O)N2CCN(c3cccc(Cl)c3)CC2)n1`, which RP-LC retention time is on record?
**A.** 745 s

**Q.** With `CCC1CN(C(=O)N2CCC(C(=O)NCCN3CCCC3)CC2)c2ccccc2O1` (stereo not given) as the compound, how does the RP-LC retention time read?
**A.** 620 s

**Q.** With `CCNC(=O)C1(C)CC(c2ccccc2)=NO1` (stereo not given) as the compound, how does the RP-LC retention time read?
**A.** 732 s

**Q.** Which RP-LC retention time does the source give for `Cc1ccc2cc(CCC(=O)NCCCN3CCc4ccccc4C3)c(=O)[nH]c2c1` here?
**A.** 614 s

**Q.** For `O=C(NC1CCCCC1)c1ccc2ccnc(N3CCN(c4ccccc4F)CC3)c2c1`, which RP-LC retention time is on record?
**A.** 908 s

**Q.** With `O=C(NCCc1noc(C2CC2)n1)c1ccco1` as the compound, how does the RP-LC retention time read?
**A.** 664 s

**Q.** With `CCn1c(=O)n(CC)c2cc(S(=O)(=O)c3ccc(C)cc3)c(NC(=O)C3CC3)cc21` as the compound, how does the RP-LC retention time read?
**A.** 873 s

**Q.** For `CC(C)c1ccccc1NC(=O)CN1C(=O)NC2(CCCCC2)C1=O`, which RP-LC retention time is on record?
**A.** 807 s

**Q.** For `CC(C)c1nnc(NC(=O)CCCOc2ccc(Cl)cc2)s1`, which RP-LC retention time is on record?
**A.** 876 s

**Q.** With `CCc1nc(NCc2ccncc2)ncc1C(=O)O` as the compound, how does the RP-LC retention time read?
**A.** 555 s

**Q.** Which RP-LC retention time does the source give for `COc1cccc(-n2c(=O)c3sccc3n(Cc3nc(-c4ccccc4C)no3)c2=O)c1` here?
**A.** 1000 s

**Q.** Which RP-LC retention time does the source give for `Cc1cc(CN2CCc3nn(Cc4ccccc4)c(=O)n3CC2)n(C)n1` here?
**A.** 611 s

**Q.** For `COCCCNc1onc(-c2ccc(Cl)cc2)c1C(=O)OC`, which RP-LC retention time is on record?
**A.** 1000 s

**Q.** For `O=C(NC1CCN(Cc2ccccc2)CC1)C1CCCN(c2ncc(-c3cccc(F)c3)cn2)C1` (stereo not given), which RP-LC retention time is on record?
**A.** 753 s

**Q.** Which RP-LC retention time does the source give for `COCCC(=O)Nc1ccc(-c2nc(Cn3nc(C)cc3C)c(C)o2)cc1` here?
**A.** 729 s

**Q.** Which RP-LC retention time does the source give for `CC(C)N(CC#CCNS(=O)(=O)c1ccc(Cl)cc1)C(C)C` here?
**A.** 568 s

**Q.** For `COc1cccc(CNC(=O)N2CCN(C3=CC4=NC(C)CN4C=N3)CC2)c1` (stereo not given), which RP-LC retention time is on record?
**A.** 649 s

**Q.** For `CC(C)CCNC(=O)c1ccc2c(c1)CCCN2S(C)(=O)=O`, which RP-LC retention time is on record?
**A.** 846 s

**Q.** Which RP-LC retention time does the source give for `COc1cc(-c2nc3ncccn3c2Nc2cccc(Cl)c2C)ccc1O` here?
**A.** 715 s

**Q.** Which RP-LC retention time does the source give for `COc1ccc(-c2noc(C3CCCN3C(=O)c3cc(Cl)ccc3OC)n2)cc1` (stereo not given) here?
**A.** 1020 s

**Q.** With `CC(C)NC(=O)N1CCC2(CC1)Nc1cc(F)ccc1-n1cccc12` as the compound, how does the RP-LC retention time read?
**A.** 895 s

**Q.** Which RP-LC retention time does the source give for `Cc1[nH]c2ccccc2c1CCNCc1ccc(/C=C/C(=O)NO)cc1` here?
**A.** 659 s

**Q.** For `Cc1sc(NC(=O)c2cccs2)nc1-c1ccccc1`, which RP-LC retention time is on record?
**A.** 1070 s

**Q.** For `COCCN1CCC2(CC1)CN(Cc1cc(OC)cc(OC)c1)Cc1ccccc1O2`, which RP-LC retention time is on record?
**A.** 560 s

**Q.** Which RP-LC retention time does the source give for `CC(C)c1ccc(OCC(O)Cn2c(C3CC3)nc3ccccc32)cc1` (stereo not given) here?
**A.** 788 s

**Q.** With `CCOC(=O)C1CCCN(Cc2cn3cc(F)ccc3n2)C1` (stereo not given) as the compound, how does the RP-LC retention time read?
**A.** 559 s

Reference: the METLIN SMRT retention time set (Domingo-Almenara et al. 2019)
